According to US9758485B2, “Compounds for controlling arthropods” (priority 2013, dated 2017):
Where two headings read alike, the source gives them in different places.

Tests used:
[1] = system: Phaedon cochleariae; test: Phaedon cochleariae - spray test; type: in vivo; conditions: Phaedon cochleariae, foliar, 168 h, larvae on Chinese cabbage leaf discs, after 7 days, read-out: efficacy; for pest or weed control at 100 g/ha: application rate 100 g/ha
Procedure: Phaedon cochleariae—Spray Test
(§1) Solvent: 78.0 parts by weight of acetone and 1.5 parts by weight of dimethylformamide
(§2) Emulsifier: alkylaryl polyglycol ether
(§3) To produce an appropriate active ingredient formulation, 1 part by weight of active ingredient is dissolved using the specified parts by weight of solvent and made up with water containing an emulsifier concentration of 1000 ppm until the desired concentration is attained. To produce further test concentrations, the preparation is diluted with emulsifier-containing water.
Discs of Chinese cabbage leaves (Brassica pekinensis) are sprayed with an active ingredient formulation of the desired concentration and, after drying, populated with larvae of the mustard beetle (Phaedon cochleariae).
After 7 days, efficacy in % is determined. 100% means that all the beetle larvae have been killed; 0% means that no beetle larvae have been killed.

[2] = system: Spodoptera frugiperda; test: Spodoptera frugiperda - spray test; type: in vivo; conditions: foliar, 168 h, caterpillars on maize leaf discs, after 7 days, read-out: efficacy; for pest or weed control at 100 g/ha: application rate 100 g/ha
Procedure: Spodoptera frugiperda—Spray Test
as §1, §2, §3
Leaf discs of maize (Zea mays) are sprayed with an active ingredient formulation of the desired concentration and, after drying, populated with caterpillars of the armyworm (Spodoptera frugiperda).
After 7 days, efficacy in % is determined. 100% means that all the caterpillars have been killed; 0% means that no caterpillars have been killed.

[3] = logP determination by HPLC on a reversed-phase column (C18), EEC Directive 79/831 Annex V.A8; type: physicochemical; conditions: for log P: HPLC on reversed-phase column (C18)
[4] = system: Lucilia cuprina; test: Lucilia cuprina test; type: in vivo; conditions: Lucilia cuprina, 48 h; application rate 100 ppm; L1 larvae in minced horsemeat; kill after 2 days; read-out: efficacy
Summary of the method: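 Mortality (%) of first-instar blowfly larvae, about 20 per vessel, recorded 2 days after exposure to compound-treated minced horsemeat. Compound dissolved in dimethyl sulphoxide, then water-diluted to the desired concentration.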

[5] = system: Ctenocephalides felis; test: Ctenocephalides felis - oral test; type: in vivo; conditions: Ctenocephalides felis, po, 48 h; application rate 100 ppm in citrated cattle blood; adult fleas; kill after 2 days; read-out: efficacy
Summary of the method: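 Fleas ingest treated citrated cattle blood (DMSO formulation) through parafilm; percent killed assessed after two days.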

[6] = system: Tetranychus urticae; test: Tetranychus urticae - spray test, OP-resistant; type: in vivo; conditions: foliar, 144 h, bean leaf discs, after 6 days, read-out: efficacy; for pest or weed control at 100 g/ha: application rate 100 g/ha
Procedure: Tetranychus urticae—Spray Test, OP-Resistant
as §1, §2, §3
Discs of bean leaves (Phaseolus vulgaris) infested by all stages of the greenhouse red spider mite (Tetranychus urticae) are sprayed with an active ingredient formulation of the desired concentration.
After 6 days, efficacy in % is determined. 100% means that all the spider mites have been killed; 0% means that none of the spider mites have been killed.

[7] = system: Musca domestica; test: Musca domestica test; type: in vivo; conditions: application rate 100 ppm; adult houseflies; kill after 2 days
Summary of the method: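 Water-diluted DMSO stock of compound, mixed onto a sugar-treated sponge, served as the sole exposure route for ten adult houseflies. Kill percentage scored at 2 days.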

[8] = system: Rhipicephalus sanguineus; test: Rhipicephalus sanguineus - in vitro contact tests with adult brown dog ticks; type: in vivo; conditions: application rate 5 μg/cm^2, after 48 h (dead or moribund)
Summary of the method: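 Test compound was dissolved in acetone p.a. (9 mg in 1 ml, then diluted), and 250 μl were spread evenly over the inner surface of 25 ml test tubes on an orbital shaker at 30 rpm for 2 h. Once the solvent evaporated, 5-10 adult Rhipicephalus sanguineus ticks were sealed in, kept dark at room temperature, and after 48 h placed on a 45-50° C. hotplate to score dead or moribund ticks.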

[9] = system: Boophilus microplus; test: Boophilus microplus - injection test; type: in vivo; conditions: Rhipicephalus microplus, 168 h; application rate 20 μg/animal; injected into engorged adult female ticks; laying of fertile eggs, after 7 days; read-out: efficacy
Summary of the method: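 Compound dissolved in DMSO (10 mg per 0.5 ml, then diluted with DMSO to test concentration); 1 μl injected into the abdomen of 5 engorged adult female ticks, which are then held in a climate-controlled room. Efficacy judged after 7 days by laying of fertile eggs.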

[10] = system: Meloidogyne incognita; test: Meloidogyne incognita test; type: in vivo; conditions: application rate 20 ppm; formation of galls on lettuce roots after 14 days
Procedure: Meloidogyne incognita Test
Solvent: 125.0 parts by weight of acetone
To produce an appropriate active ingredient formulation, 1 part by weight of active ingredient is mixed with the stated amount of solvent and the concentrate is diluted with water to the desired concentration.
Vessels are filled with sand, active ingredient solution, an egg/larvae suspension of the southern root-knot nematode (Meloidogyne incognita) and lettuce seeds. The lettuce seeds germinate and the plants develop. The galls develop on the roots.
After 14 days, the nematicidal efficacy in % is determined by the formation of galls. 100% means that no galls were found; 0% means that the number of galls on the treated plants corresponds to the untreated control.

[11] = system: Boophilus microplus Parkhurst strain, SP-resistant; test: Boophilus microplus - dip test; type: in vivo; conditions: application rate 100 ppm; dip of engorged adult female ticks; laying of fertile eggs, after 7 days
Summary of the method: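 Efficacy reflects suppression of fertile egg laying: 0% means all eggs fertile, 100% none, read at 7 days, doubtful eggs kept ~42 days for larval hatch. Treatment was a complete dip of 8–10 engorged adult female ticks (SP-resistant Parkhurst strain) in a water dilution of a DMSO stock.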

[12] = system: Ctenocephalides felis; test: Ctenocephalides felis - in vitro contact tests with adult cat fleas; type: in vivo; conditions: application rate 5 μg/cm^2 (=500 g/ha), after 48 h (dead or moribund)
Summary of the method: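 Efficacy, as share of dead or moribund adult Ctenocephalides felis, read 48 h after placing 5-10 fleas in tubes coated by acetone solution (5 μg/cm^2 at 900 ppm). Incubation horizontal at room temperature, ambient humidity; immobile or uncoordinated fleas scored.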

[13] = reversed-phase HPLC column (C18), HPLC, reversed-phase C18, acetonitrile/water with formic acid, 55° C., read-out: logP
[14] = reversed-phase HPLC column (C18), HPLC-MS method a), Table I-T3; read-out: logP^a)
[15] = reversed-phase HPLC column (C18), HPLC-MS method a); read-out: logP^a)

SMILES	pest or weed control at 100 g/ha [1] [%]	pest or weed control at 100 g/ha [2] [%]	chromatographic logP [3, 13]	pest or weed control at 100 ppm [4] [%]	pest or weed control at 100 ppm [5] [%]	pest or weed control at 100 g/ha [6] [%]	other results
O=C(NC1CC1)c1cc(-c2cnn(-c3c(F)cc(C(F)(F)F)cc3F)c2)ccc1Cl [I-T3-48, 2-chloro-N-cyclopropyl-5-[1-[2,6-difluoro-4-(trifluoromethyl)phenyl]pyrazol-4-yl]benzamide]	100	100	3.2	100	100	–	chromatographic logP [3, 14]: 3.2; chromatographic logP [3, 15]: 3.2
COc1cc(C(F)(F)F)cc(F)c1-n1cc(-c2ccc(Cl)c(C(=O)NC3CC3)c2)cn1 [I-T3-50, 2-chloro-N-cyclopropyl-5-[1-[2-fluoro-6-methoxy-4-(trifluoromethyl)phenyl]pyrazol-4-yl]benzamide]	100	83	3.1	100	100	90	chromatographic logP [3, 14]: 3.1; chromatographic logP [3, 15]: 3.1
Cc1cc(C(F)(C(F)(F)F)C(F)(F)F)cc(C(F)(F)F)c1-n1cc(-c2ccc(Cl)c(C(=S)NC3CC3)c2)cn1 [I-T3-161, 2-chloro-N-cyclopropyl-5-[1-[2-methyl-4-[1,2,2,2-tetrafluoro-1-(trifluoromethyl)ethyl]-6-(trifluoromethyl)phenyl]pyrazol-4-yl]benzenecarbothioamide]	100	100	5	100	100	100	efficacy [7]: 100%; efficacy [8]: 100%; chromatographic logP ([3]; reversed-phase HPLC column (C18), HPLC-MS method a), reversed-phase column (C18); read-out: logP^a)): 5; chromatographic logP ([3]; reversed-phase HPLC column (C18), HPLC-MS, reversed-phase column (C18), read-out: log P): 5; pest or weed control at 0.02 mg [9]: 100%
O=C(NC1CC1)c1cc(-c2cnn(-c3c(Cl)cc(C(F)(F)F)c(F)c3Cl)c2)ccc1Cl [I-T3-184]	–	–	–	–	–	–	efficacy [10]: 90%; log P [3]: 3.6
N#CC1(NC(=O)c2cc(-c3cnn(-c4c(Cl)cc(C(F)(F)F)c(F)c4Cl)c3)ccc2Cl)CC1 [I-T3-185]	–	–	–	–	–	–	efficacy [10]: 90%; log P [3]: 3.6
Cc1cc(C(F)(C(F)(F)F)C(F)(F)F)cc(C)c1-c1cnn(-c2ccc(Cl)c(C(=O)NC3CC3)c2)c1 [I-T4-1, N-cyclopropyl-2-chloro-5-[4-[2,6-dimethyl-4-[1,2,2,2-tetrafluoro-1-(trifluoromethyl)ethyl]phenyl]pyrazol-1-yl]benzamide]	100	100	4.74	100	100	100	–
Cc1cc(C(F)(C(F)(F)F)C(F)(F)F)cc(C)c1-c1cnn(-c2cnc(Cl)c(C(=O)NC3CC3)c2)c1 [I-T4-3, 2-chloro-N-cyclopropyl-5-[4-[2,6-dimethyl-4-[1,2,2,2-tetrafluoro-1-(trifluoromethyl)ethyl]phenyl]pyrazol-1-yl]pyridine-3-carboxamide]	100	100	4.42	100	100	100	–
Cc1cc(C(F)(C(F)(F)F)C(F)(F)F)cc(C)c1-c1cc(-c2ccc(Cl)c(C(=O)NC3CC3)c2)on1 [I-T22-1, 2-chloro-N-cyclopropyl-5-[3-[2,6-dimethyl-4-[1,2,2,2-tetrafluoro-1-(trifluoromethyl)ethyl]phenyl]isoxazol-5-yl]benzamide]	100	100	4.75	100	100	90	–
Cc1cc(C(F)(C(F)(F)F)C(F)(F)F)cc(C(F)(F)F)c1-c1cc(-c2ccc(Cl)c(C(=O)NC3(C#N)CC3)c2)on1 [I-T22-7, 2-chloro-N-(1-cyanocyclopropyl)-5-[3-[2-methyl-4-[1,2,2,2-tetrafluoro-1-(trifluoromethyl)ethyl]-6-(trifluoromethyl)phenyl]isoxazol-5-yl]benzamide]	100	100	4.7	100	100	100	efficacy [7]: 100%; efficacy [11]: 100%; efficacy [8]: 100%; efficacy [12]: 100%; pest or weed control at 0.02 mg [9]: 100%
O=C(NC1CC1)c1cc(-c2cc(-c3c(Cl)cc(C(F)(C(F)(F)F)C(F)(F)F)cc3Cl)on2)ccc1Cl [I-T23-1, 2-chloro-N-cyclopropyl-5-[5-[2,6-dichloro-4-[1,2,2,2-tetrafluoro-1-(trifluoromethyl)ethyl]phenyl]isoxazol-3-yl]benzamide]	–	–	4.96	100	100	–	pest or weed control at 500 g/ha ([1]; application rate 500 g/ha): 100%; pest or weed control at 500 g/ha ([2]; application rate 500 g/ha): 100%; pest or weed control at 500 g/ha ([6]; application rate 500 g/ha): 100%
